# Source: patent US20200306266A1, “SOLID DISPERSION OF DUTASTERIDE, METHOD FOR PRODUCING SAME, AND PHARMACEUTICAL COMPOSITION COMPRISING SAME” (KOREA PRIME PHARM CO., LTD., priority 2017, published 2020)
# Test: Storage stability, related substance test
# Format: physicochemical
# Settings: Raw material
# Description: Evaluation of Storage Stability of the Preparations
# The storage stabilities of the preparations were evaluated according to the test criteria for related substances.
structure (smiles),measurement,value
"C[C@]12C=CC(=O)N[C@@H]1CC[C@@H]1[C@@H]2CC[C@]2(C)[C@@H](C(=O)Nc3cc(C(F)(F)F)ccc3C(F)(F)F)CC[C@@H]12 [Dutasteride, 17β-N-[2,5-bis(trifluoromethyl)]phenylcarbamoyl-4-aza-5α-androst-1-en-3-one]",Judgement,Suitable
